Assays:
barnyardgrass = experiment: Test A pre-/postemergence herbicide test; type: in vivo, Echinochloa crus-galli
Summary of the method: (§1)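 Both application timings were run together: directed soil spray over freshly planted seeds in sandy loam, and runoff spray onto 2–10 cm seedlings. Evaluation after ~10 days in greenhouse used a 0–100 visual scale versus untreated controls.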

large crabgrass = experiment: Test A pre-/postemergence herbicide test; type: in vivo, Digitaria sanguinalis
Summary of the method: as §1

giant foxtail = experiment: Test A pre-/postemergence herbicide test; type: in vivo, Setaria faberi
Summary of the method: as §1

blackgrass = experiment: Test B postemergence herbicide test; type: in vivo, Alopecurus myosuroides; details: postemergence, visual rating, scale 0 (no effect) to 100 (complete control)
Summary of the method: (§2)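 Treated at 2-leaf (paddy) or 1–4-leaf, 2–18 cm (postemergence); greenhouse 13–15 d; visual score vs control, 0 none to 100 complete control; dash = not tested.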

ducksalad [1] = experiment: Test B flooded paddy test; type: in vivo, Heteranthera limosa; details: 1000 g ai/ha, visual rating, scale 0 to 100 (0 no effect, 100 complete control), 13 to 15 days
Summary of the method: as §2

cocklebur = experiment: Test C pre-/postemergence herbicide test; type: in vivo, Xanthium strumarium
Summary of the method: (§3)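 Emerged plants at the 1- to 4-leaf stage (2–18 cm), or freshly planted seeds, received test chemicals in a non-phytotoxic solvent mixture with surfactant. Response was visually scored against controls after 12 to 14 days in the greenhouse, on a 0 (no effect) to 100 (complete control) scale.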

corn = experiment: Test C pre-/postemergence herbicide test; type: in vivo, Zea mays
Summary of the method: as §3

woolly cupgrass = experiment: Test C pre-/postemergence herbicide test; type: in vivo, Eriochloa villosa
Summary of the method: as §3

[2] = test system: common (oilseed) sunflower; experiment: Test C pre-/postemergence herbicide test; type: in vivo, Helianthus annuus
Summary of the method: as §3

ducksalad [3] = experiment: Test C flooded paddy test; type: in vivo, Heteranthera limosa; details: for Plant response rating, Ducksalad: 500 g ai/ha, visual rating after 12 to 14 days
[4] = Postemergence, 250 g ai/ha, 0 to 100 scale, 0 no effect, 100 complete control
[5] = Postemergence, 1000 g ai/ha, 0 to 100 scale, 0 no effect, 100 complete control
[6] = Preemergence, 1000 g ai/ha, visual rating, 0 to 100 scale (0 no effect, 100 complete control)
[7] = preemergence, 250 g ai/ha, visual injury, 0 to 100 scale (0 no effect, 100 complete control)
[8] = 125 g ai/ha, scale 0 (no effect) to 100 (complete control), visual, 12 to 14 days, preemergence
[9] = 250 g ai/ha, scale 0 to 100 (0 no effect, 100 complete control), visual, 12 to 14 days, preemergence
[10] = 62 g ai/ha, scale 0 to 100 (0 no effect, 100 complete control)
[11] = 125 g ai/ha, scale 0 to 100 (0 no effect, 100 complete control)
[12] = 250 g ai/ha, scale of 0 to 100, 0 is no effect, 100 is complete control
[13] = scale 0 to 100 (0 no effect, 100 complete control)
[14] = Postemergence, 500 g ai/ha, 0 to 100 scale, 0 no effect, 100 complete control
[15] = Postemergence, 2000 g ai/ha, 0 to 100 scale, 0 no effect, 100 complete control
[16] = Preemergence, 2000 g ai/ha, visual rating, 0 to 100 scale (0 no effect, 100 complete control)
[17] = preemergence, 500 g ai/ha, visual injury, 0 to 100 scale (0 no effect, 100 complete control)
[18] = 62 g ai/ha, preemergence, scale 0 to 100
[19] = 250 g ai/ha, scale 0-100, preemergence
[20] = Preemergence, 500 g ai/ha, scale 0 to 100, 0 no effect, 100 complete control

CCn1nc(C(C)(C)C)cc1C(=O)Nc1cccc(SC)c1 [Compound 131]
Barnyardgrass plant response rating (barnyardgrass; [4]): 25
Plant response rating, Barnyardgrass (barnyardgrass; [5]): 60
Barnyardgrass plant response rating (barnyardgrass; [6]): 50
Barnyardgrass plant response rating (barnyardgrass; [7]): 45
Crabgrass, Large plant response rating (large crabgrass; [4]): 20
Plant response rating, Crabgrass, Large (large crabgrass; [5]): 40
Crabgrass, Large plant response rating (large crabgrass; [6]): 85
Crabgrass, Large plant response rating (large crabgrass; [7]): 20
Foxtail, Giant plant response rating (giant foxtail; [4]): 10
Plant response rating, Foxtail, Giant (giant foxtail; [5]): 15
Foxtail, Giant plant response rating (giant foxtail; [6]): 75
Foxtail, Giant plant response rating (giant foxtail; [7]): 10
Blackgrass plant response rating (blackgrass; 125 g ai/ha): 10
Blackgrass plant response rating (blackgrass; 500 g ai/ha): 20
Ducksalad plant response rating (ducksalad [1]): 80
Plant response rating (0 = no effect, 100 = complete control), Cocklebur (cocklebur; 62 g ai/ha, preemergence): 0
Plant response rating, Cocklebur (cocklebur; [8]): 20
Plant response rating, Cocklebur (cocklebur; [9]): 25
Plant response rating (0 = no effect, 100 = complete control), Corn (corn; 62 g ai/ha, preemergence): 0
Plant response rating, Corn (corn; [8]): 0
Plant response rating, Corn (corn; [9]): 0
Plant response rating (0 = no effect, 100 = complete control), Cupgrass, Woolly (woolly cupgrass; 62 g ai/ha, preemergence): 0
Plant response rating, Cupgrass, Woolly (woolly cupgrass; [8]): 0
Plant response rating, Cupgrass, Woolly (woolly cupgrass; [9]): 15
Plant response rating (0 = no effect, 100 = complete control), Sunflower ([2]; 62 g ai/ha, preemergence): 0
Plant response rating, Sunflower [2, 8]: 0
Ducksalad plant response rating (ducksalad [3]; [10]): 0
Ducksalad plant response rating (ducksalad [3]; [11]): 20
Ducksalad plant response rating (ducksalad [3]; [12]): 45
Plant response rating, Ducksalad (ducksalad [3]; [13]): 80

C=CCNC(=O)c1cccc(NC(=O)c2sc(C(C)(C)C)nc2CC)c1 [Compound 207]
Barnyardgrass plant response rating (barnyardgrass; [14]): 40
Plant response rating, Barnyardgrass (barnyardgrass; [15]): 70
Barnyardgrass plant response rating (barnyardgrass; [16]): 80
Barnyardgrass plant response rating (barnyardgrass; [17]): 70
Crabgrass, Large plant response rating (large crabgrass; [14]): 20
Plant response rating, Crabgrass, Large (large crabgrass; [15]): 65
Crabgrass, Large plant response rating (large crabgrass; [16]): 90
Crabgrass, Large plant response rating (large crabgrass; [17]): 95
Foxtail, Giant plant response rating (giant foxtail; [14]): 10
Plant response rating, Foxtail, Giant (giant foxtail; [15]): 50
Foxtail, Giant plant response rating (giant foxtail; [16]): 90
Foxtail, Giant plant response rating (giant foxtail; [17]): 75
Blackgrass plant response rating (blackgrass; 125 g ai/ha): 0
Blackgrass plant response rating (blackgrass; 500 g ai/ha): 10
Ducksalad plant response rating (ducksalad [1]): 90
Plant response rating, Cocklebur (cocklebur; [18]): 0
Plant response rating, Cocklebur (cocklebur; [8]): 0
Plant response rating, Cocklebur (cocklebur; [19]): 0
Cocklebur plant response rating (cocklebur; [20]): 0
Plant response rating, Corn (corn; [18]): 0
Plant response rating, Corn (corn; [8]): 0
Plant response rating, Corn (corn; [19]): 5
Corn plant response rating (corn; [20]): 20
Plant response rating, Cupgrass, Woolly (woolly cupgrass; [18]): 0
Plant response rating, Cupgrass, Woolly (woolly cupgrass; [8]): 0
Plant response rating, Cupgrass, Woolly (woolly cupgrass; [19]): 5
Cupgrass, Woolly plant response rating (woolly cupgrass; [20]): 40
Plant response rating, Sunflower [2, 18]: 0
Plant response rating, Sunflower [2, 8]: 0
Plant response rating, Sunflower [2, 19]: 0
Sunflower plant response rating [2, 20]: 0
Ducksalad plant response rating (ducksalad [3]; [10]): 55
Ducksalad plant response rating (ducksalad [3]; [11]): 80
Ducksalad plant response rating (ducksalad [3]; [12]): 80
Plant response rating, Ducksalad (ducksalad [3]; [13]): 85

— patent US20060069132A1, “Azolecarboxamide herbicides” (priority 2004, published 2006)
